Experiment [1] addresses T1, NAD-dependent protein deacetylase sirtuin-2 (Homo sapiens, UniProt Q8IXJ6).
T1 sequence (Q8IXJ6 whole entry): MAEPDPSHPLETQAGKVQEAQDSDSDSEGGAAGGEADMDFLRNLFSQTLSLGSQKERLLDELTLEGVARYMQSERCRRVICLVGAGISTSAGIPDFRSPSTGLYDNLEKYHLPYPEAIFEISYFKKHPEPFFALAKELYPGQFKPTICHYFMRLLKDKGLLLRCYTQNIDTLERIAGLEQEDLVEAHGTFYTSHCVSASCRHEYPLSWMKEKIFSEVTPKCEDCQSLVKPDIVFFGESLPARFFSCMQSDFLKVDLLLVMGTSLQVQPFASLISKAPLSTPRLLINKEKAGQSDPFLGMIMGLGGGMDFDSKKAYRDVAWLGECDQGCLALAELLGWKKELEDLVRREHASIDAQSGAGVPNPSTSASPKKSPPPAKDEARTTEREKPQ
The experiment can be described thus: Fluorescence-Based Deacetylation Assay. Particulars: pH 8; 37 °C. As for the experimental part:
(§1) Deacetylation assays using Boc(Ac)Lys-7-amino-4-methyl-coumarin (MAL; Bachem, Bubendorf, Switzerland) as a substrate were performed in a volume of 20 μl in 384-well low volume plates (Eppendorf) in a reaction buffer containing 25 mM Tris-HCl (pH 8.0), 137 mM NaCl, 1 mM MgCl2, 2.7 mM KCl, 1 mg/ml BSA, and 1mM DTT. Enzymes were added at different concentrations to wells in a volume of 10 μl and were preincubated with inhibitors (volume 1 μl, diluted in dimethyl sulfoxide) or with dimethyl sulfoxide as a control for 10 min at room temperature. Subsequently, 10 μl 2× concentrated substrate solution containing 200 μM MAL and 2 mM NAD+ was added to initiate the reaction, which was incubated at 37 °C for 4 h. This allowed for ~50% deacetylation of MAL. After incubation, 20 μl of trypsin solution (0.5 mg/ml) was added, and the trypsin cleavage reaction was allowed to proceed at 37 °C for 1 h. Fluorescence readings were obtained using a fluorescence reader(GENiosPro TECAN), with the excitation wavelength set to 360 nm and the emission set to 465 nm.

In experiment [2] the target is T2, NAD-dependent protein deacetylase sirtuin-1 (Homo sapiens, UniProt Q96EB6).
T2 sequence (Q96EB6 whole entry): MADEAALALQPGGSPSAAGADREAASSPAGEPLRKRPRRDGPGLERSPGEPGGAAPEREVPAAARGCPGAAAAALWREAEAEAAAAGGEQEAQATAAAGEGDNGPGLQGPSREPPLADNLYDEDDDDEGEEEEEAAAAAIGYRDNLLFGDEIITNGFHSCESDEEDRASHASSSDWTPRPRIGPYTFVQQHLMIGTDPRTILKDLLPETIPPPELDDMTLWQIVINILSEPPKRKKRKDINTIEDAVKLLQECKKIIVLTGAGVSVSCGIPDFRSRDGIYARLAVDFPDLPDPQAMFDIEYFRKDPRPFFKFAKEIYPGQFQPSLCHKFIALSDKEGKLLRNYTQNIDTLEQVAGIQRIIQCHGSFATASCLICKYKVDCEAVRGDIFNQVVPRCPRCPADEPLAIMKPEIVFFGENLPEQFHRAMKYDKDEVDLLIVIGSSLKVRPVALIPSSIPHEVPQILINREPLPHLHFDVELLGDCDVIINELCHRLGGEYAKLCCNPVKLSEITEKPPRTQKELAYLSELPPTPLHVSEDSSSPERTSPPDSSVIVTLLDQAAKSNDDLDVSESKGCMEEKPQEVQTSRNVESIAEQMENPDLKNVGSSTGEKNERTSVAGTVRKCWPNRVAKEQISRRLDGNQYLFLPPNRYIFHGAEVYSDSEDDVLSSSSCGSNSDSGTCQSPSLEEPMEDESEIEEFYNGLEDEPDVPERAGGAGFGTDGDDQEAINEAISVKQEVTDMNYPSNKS
In words: Fluorescence-Based Deacetylation Assay. As to conditions: pH 8; 37 °C. As for the experimental part:
as §1

Where only a bound is given, the exact number is not on record here.

Take `COCCCNC(=O)c1ccc2c(c1)C1C3CCC(C3)C1C(c1ccccc1)N2` (stereo not given) [AEM1 derivative, 1]: the IC50 in experiment [1] came out at 18.7 µM. As for `NC(=O)c1ccc2c(c1)C1C3CCC(C3)C1C(c1ccccc1)N2` (stereo not given) [AEM1], the figures for the half-maximal inhibitory concentration (IC50) in experiment [2] and in experiment [1] were 118 µM and 18.5 µM, respectively. For `O=C(NCc1cccnc1)c1ccc2c(c1)C1C3CCC(C3)C1C(c1ccccc1)N2` (stereo not given) [AEM2], in that order: > 100 µM and 3.8 µM.

For the origin of these results see BindingDB's records for doi:10.1074/jbc.M113.487736 (Universität Duisburg-Essen, 2014).
